“Also recorded” adds a separate entry of the source.
Columns and labels:
[1] = tested on: Cushing's syndrome patients; details: see U.S. Patent Application 62/783,015; cited from earlier work
[2] = tested on: Cushing's syndrome patients; test: Clinical study of relacorilant in Cushing's syndrome patients (coagulation factors, inflammation markers, comorbidities); type: in vivo, human
Excerpt: In TABLE 1 above, the P-value is a Wilcoxon Signed Rank P-value; mean change from baseline indicates the mean change from the initial (baseline) values to the last-observed values; Factor VIII values are reported as percent of normal values; platelet counts and eosinophil counts are reported as numbers of cells per liter; APTT indicates activated partial thromboplastin time, measured in seconds; and serum osteocalcin measures levels of the vitamin K-related hormone osteocalcin outside of bone. […] Relacorilant was administered to the patients once per day for four months. Two groups of Cushing's syndrome patients received relacorilant. Group 1 received 100 milligrams per day (mg/day) which, if tolerated, was raised to 200 mg/day for the 16 weeks of the study. Group 2 received relacorilant doses according to the following schedule: the starting doses were 250 milligrams (mg) per day of relacorilant for four weeks, followed by 300 mg/day relacorilant for the next four weeks, followed by 350 mg/day relacorilant for a further four weeks, and then 400 mg relacorilant for another four weeks. […] Factor VIII and von Willebrand Factor at baseline, prior to relacorilant administration (left-most pair of columns); after four weeks of relacorilant treatment (middle pair of columns); and after 3 or 4 months of relacorilant treatment (right-most pair of columns). Factor VIII levels are reduced, as compared to baseline, at week four and after 3 or 4 months of relacorilant treatment. […] The APTT of Group 2 patients receiving relacorilant was measured at baseline (before relacorilant administration) and after 16 weeks (or following the last relacorilant administration for those patients who […] the full 16 weeks of relacorilant administration). […] Increased APTT indicates an increase in the time for blood coagulation; that is, a reduction in hypercoagulation.

[3] = baseline to last-observed values, cells per liter
[4] = generally observed within two weeks of achieving a therapeutic dose

For `Cn1cc(S(=O)(=O)N2CCC3=Cc4c(cnn4-c4ccc(F)cc4)C[C@]3(C(=O)c3cc(C(F)(F)F)ccn3)C2)cn1` [relacorilant, (R)-(1-(4-fluorophenyl)-6-((1-methyl-1H-pyrazol-4-yl)sulfonyl)-4,4a,5,6,7,8-hexahydro-1H-pyrazolo[3,4-g]isoquinolin-4a-yl)(4-(trifluoromethyl)pyridin-2-yl)methanone], the Effect on cortisol [1] is given as “not raising cortisol”, the Risk of hypokalemia [1] is given as “not increasing the risk of hypokalemia” and the “Coagulation profile (coagulation factors, thrombin-antithrombin) compared to baseline” value ([2]; FIG. 2B) is given as “improved compared to baseline”. The “APTT compared to baseline” value ([2]; Group 2 patients (250 to 400 mg/day), 12 patients, after 16 weeks or last administration (FIG. 2A), p-value 0.014) was “increased significantly”, the “Von Willebrand factor levels compared to baseline” value ([2]; after 3 or 4 months of relacorilant treatment (FIG. 1A)) was “return to baseline levels” and the “C-Reactive protein levels compared to baseline” value ([2]; after 3 or 4 months of relacorilant treatment (FIG. 3)) was “return to baseline levels”. For the same compound, the “Factor VIII levels compared to baseline” value ([2]; after 3 or 4 months of relacorilant treatment, end of study (FIG. 1A)) was “reduced; also recorded: normalized”, the “Abnormally elevated coagulation factors caused by excess cortisol activity” value ([2]; as early as after one month of treatment) was “Improvement/normalization” and the “Von Willebrand factor levels compared to baseline” value ([2]; at four weeks of relacorilant treatment (FIG. 1A)) was “initially rise somewhat”. The “C-Reactive protein levels compared to baseline” value ([2]; at four weeks of relacorilant treatment (FIG. 3)) was “initially rise somewhat”, the “Serum Osteocalcin, Mean Change from Baseline” value ([2]; baseline to last-observed values) was 3.00 µg/L and the “Coagulopathy (APTT), Mean Change from Baseline” value ([2]; baseline to last-observed values, activated partial thromboplastin time) was “+1.45 Seconds”. The “Coagulopathy (Platelets), Mean Change from Baseline” value [2, 3] was −68.82 10^9/L, the “Inflammation (eosinophils), Mean Change from Baseline” value [2, 3] was 0.05 10^9/L and the “Coagulopathy (Factor VIII), Mean Change from Baseline” value ([2]; baseline to last-observed values, percent of normal values, Cushing's syndrome patients, relacorilant once per day) was −18.94%. For the same compound, the Thromboembolic events ([2]; clinical study of 35 Cushing's syndrome patients treated with relacorilant) was “No thromboembolic events were observed”, the Hyperglycemia [2, 4] was “improvement” and the Hypertension [2, 4] was “improvement”. For the same compound, the “Factor VIII levels compared to baseline” value ([2]; week four of relacorilant treatment (FIG. 1A)) was “reduced”.

— patent publication US12102642B2, “Treatment of hypercoagulopathy in Cushing's syndrome by administration of glucocorticoid receptor modulators” (Corcept Therapeutics Incorporated, priority 2018, dated 2024)
